# Test results from paper PMC6274375, “Two New Pentacyclic Triterpene Saponins from the Leaves of Akebia trifoliata” (Molecules, 2016).
# Assays:
# [1] = MTT cytotoxicity assay, A549 cells; type: cell-based; settings: human, mean ± SD (n = 3)
# Experimental: (§1) Compounds 1–7 were testeded for their cytotoxity against A549 (human lung adenocarcinoma), HeLa (human cervical carcinoma) and HepG2 (human liver hepatocellular carcinoma) cell lines. The three tumor cell lines were obtained from Kunming Institute of Zoology, Chinese Academy of Sciences. The cytotoxic activity of tested chemicals were assayed according to the MTT method using 96 well plates. Briefly, the cells were cultured in RPMI-1640 medium, supplemented with 10% fetal bovine serum in a humidified atmosphere with 5% CO2 at 37 °C. 100 μL adherent cells at the density of 5 × 10^4 cell/mL was seeded into each well of 96-well cell culture plates and incubated in 5% CO2 at 37 °C for 24 h to form a monolayer on the flat bottoms. Then, the supernatant per well was removed and subsequently added with 100 μL fresh medium and 100 μL medium containing a test compound. The plate was then incubated in 5% CO2 at 37 °C. After 72 h, 20 μL of 5 mg/mL MTT in DMSO was added into each well and incubated for 4 h. The supernatant per well was carefully removed and 150 μL DMSO was added. The plate was then vortex shaken for 15 min to dissolve blue formazan crystals. The optical density (OD) of each well was measured on a Genois microplate reader (Tecan GENios, Männedorf, Switzerland) at the wavelength of 570 nm. All experiments were performed in triplicate and adriamycin was used as a positive control. In each experiment, each of the tumor cell lines was exposed to the test compound at concentrations 50, 25, 12.5, 6.25, 3.125, 1.5625 µg/mL. The inhibitory rate of cell growth was calculated according to the following formula: Inhibition rate (%) = (ODcontrol − ODtreated)/ODcontrol × 100%. IC50 values were calculated by SPSS 16.0 statistic software. The values were based on three individual experiments and expressed as means ± standard deviation (SD).
# [2] = MTT cytotoxicity assay, HeLa cells; type: cell-based; settings: human, mean ± SD (n = 3)
# Experimental: as §1
# [3] = MTT cytotoxicity assay, HepG2 cells; type: cell-based; settings: human, mean ± SD (n = 3)
# Experimental: as §1
# α-glucosidase = assay: α-Glucosidase inhibition assay (PNPG substrate); type: biochemical; settings: pH 6.8, 37 °C, read-out: α-glucosidase inhibitory activity IC50
# Experimental: The a-glucosidase inhibitory activity of 1–7 were determined spectrophotometrically in a 96-well microtiter plate based on p-nitrophenyl-α-D-glucopyranoside (PNPG) as a substrate following the method described in literature with slight modifications. In brief, α-glucosidase (20 μL, 0.8 U/mL) and various concentrations (500, 250, 125, 62.5, 31.25, 15.625 µg/mL) of tested compounds (120 μL) in 67 mM phosphate buffer (pH 6.8) were mixed at room temperature for 10 min. Reactions were initiated by addition of 5.0 mM PNPG (20 μL). The reaction mixture was incubated for 15 min at 37 °C in a final volume of 160 μL. Then, 0.2 M Na2CO3 (80 μL) was added to the incubation solution to stop the reaction. The activities were detected in a 96-well plate, and the absorbance was determined at 405 nm (for p-nitrophenol). The negative blank was set by adding phosphate buffer instead of the sample via the same way as the test. […] The blank was set by adding phosphate buffer instead of the α-glucosidase using the same method. Inhibition rate (%) = [(ODnegative control − ODblank) − (ODtest − ODtest blank)]/(ODnegative blank − ODblank) × 100%. IC50 values of the samples were calculated using the Microsoft Office Excel soft.
# [4] = MTT cytotoxicity, summary statements over the three cell lines; type: cell-based, human; settings: human, A549, HeLa and HepG2 cells (range over the three cell lines)
# Experimental: as §1
# [5] = tested on: human tumor A549, HeLa and HepG2 cell lines; assay: as above; type: cell-based; settings: A549, HeLa and HepG2
# Experimental: as §1
# [6] = range over A549, HeLa and HepG2 and over both compounds, read-out: Cytotoxicity IC50 values, range over all three cancer cell lines
# [7] = range over the three cell lines and over both compounds, as given in abstract, read-out: Cytotoxicity IC50 values, range over A549, HeLa and HepG2
SMILES,IC50 at 72 h [1] [µM],IC50 at 72 h [2] [µM],IC50 at 72 h [3] [µM],IC50 (α-glucosidase) [µM],"IC50 at 72 h [4, 6] [µM]","IC50 at 72 h [4, 7] [µM]","In vitro cytotoxicity, result in words [5]"
"CC1(C)CC[C@]2(C(=O)O)CC[C@]3(C)C(=CCC4[C@@]5(C)C[C@@H](O)[C@H](O)[C@@](C)(C=O)C5CC[C@]43C)C2C1 (stereo partly drawn) [Compound 5, 2α,3β-dihydroxy-23-oxo-olean-12-en-28-oic acid]",30.2 ± 4.55,22.7 ± 1.96,38 ± 7.57,47,22.7 to 38.1,23 to 38,moderate in vitro cytotoxicity
"C=C1CC[C@]2(C(=O)O)CC[C@]3(C)C(=CCC4[C@@]5(C)C[C@@H](O)[C@H](O)[C@@](C)(C=O)C5CC[C@]43C)C2C1 (stereo partly drawn) [Compound 6, 2α,3β-dihydroxy-23-oxo-30-norolean-12,20 (29)-dien-28-oic acid]",> 100,> 100,> 100,220,–,–,–
"CC1(C)CC[C@]2(C(=O)O)CC[C@]3(C)C(=CC[C@@H]4[C@@]5(C)C[C@@H](O)[C@H](O)[C@@](C)(CO)[C@@H]5CC[C@]43C)[C@@H]2C1 [Compound 7, arjunolic acid]",33.6 ± 3.13,24.4 ± 1.49,38.1 ± 1.63,40,22.7 to 38.1,23 to 38,moderate in vitro cytotoxicity
